In PubChem BioAssay AID1963971 (Molecular Pharmacology Branch, DTP, NCI, 2024):

Test system: 953936-095-R-J2-PDC spheroids with HUVEC/MSC, viability
Experiment: Anticancer human tumor 953936-095-R-J2-PDC patient-derived cervical squamous cell carcinoma cell line growth inhibition [PI3K]
Settings: for IC50: curve of first compound; for viability, T/C: stronger effect = lower value
How it was run: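 Three cell types, namely tumor cells, endothelial cells and mesenchymal stem cells, formed each spheroid. Combinations with four PI3K inhibitors were screened at clinically achievable concentrations decreasing by half-log, and spheroid viability was recorded.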

[1] = second compound 0.0316 µM, first compound 0.0316 µM
[2] = second compound 0.0316 µM, first compound 0.1 µM
[3] = second compound 0.0316 µM, first compound 0.316 µM
[4] = second compound 0.0316 µM, first compound 1 µM
[5] = second compound 0.0316 µM, first compound 3.16 µM
[6] = second compound 0.0316 µM, first compound 10 µM
[7] = second compound 0.1 µM, first compound 0.0316 µM
[8] = second compound 0.1 µM, first compound 0.1 µM
[9] = second compound 0.1 µM, first compound 0.316 µM
[10] = second compound 0.1 µM, first compound 1 µM
[11] = second compound 0.1 µM, first compound 3.16 µM
[12] = second compound 0.1 µM, first compound 10 µM
[13] = second compound 0.316 µM, first compound 0.0316 µM
[14] = second compound 0.316 µM, first compound 0.1 µM
[15] = second compound 0.316 µM, first compound 0.316 µM
[16] = second compound 0.316 µM, first compound 1 µM
[17] = second compound 0.316 µM, first compound 3.16 µM
[18] = second compound 0.316 µM, first compound 10 µM
[19] = second compound 1 µM, first compound 0.0316 µM
[20] = second compound 1 µM, first compound 0.1 µM
[21] = second compound 1 µM, first compound 0.316 µM
[22] = second compound 1 µM, first compound 1 µM
[23] = second compound 1 µM, first compound 3.16 µM
[24] = second compound 1 µM, first compound 10 µM
[25] = second compound 0.00316 µM, first compound 0.0316 µM
[26] = second compound 0.00316 µM, first compound 0.1 µM
[27] = second compound 0.00316 µM, first compound 0.316 µM
[28] = second compound 0.00316 µM, first compound 1 µM
[29] = second compound 0.00316 µM, first compound 3.16 µM
[30] = second compound 0.00316 µM, first compound 10 µM
[31] = second compound 0.01 µM, first compound 0.0316 µM
[32] = second compound 0.01 µM, first compound 0.1 µM
[33] = second compound 0.01 µM, first compound 0.316 µM
[34] = second compound 0.01 µM, first compound 1 µM
[35] = second compound 0.01 µM, first compound 3.16 µM
[36] = second compound 0.01 µM, first compound 10 µM
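Further: spheroids exposed to compounds for seven days before read-out.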

For CC1(C)CCC(CN2CCN(c3ccc(C(=O)NS(=O)(=O)c4ccc(NCC5CCOCC5)c([N+](=O)[O-])c4)c(Oc4cnc5[nH]ccc5c4)c3)CC2)=C(c2ccc(Cl)cc2)C1 + CC(Nc1ncnc2nc[nH]c12)c1cc2cccc(Cl)c2c(=O)n1-c1ccccc1, the IC50 (second compound 0.0316 µM) was 7.41 µM, the IC50 (second compound 0.1 µM) was 6.33 µM and the IC50 (second compound 0.316 µM) was 7.43 µM. For the same compound, the IC50 (second compound 1 µM) was 7.16 µM, the IC50 (second compound 3.16 µM) was 6.61 µM and the IC50 (second compound 10 µM) was 4.9 µM. The viability, T/C [1] was 84.4%, the viability, T/C [2] was 102% and the viability, T/C [3] was 101%. The viability, T/C [4] was 90.2%, the viability, T/C [5] was 94.7% and the viability, T/C [6] was 34.3%. For the same compound, the viability, T/C [7] was 93.8%, the viability, T/C [8] was 104% and the viability, T/C [9] was 112%. For the same compound, the viability, T/C [10] was 98%, the viability, T/C [11] was 78.8% and the viability, T/C [12] was 31%. The viability, T/C [13] was 101%, the viability, T/C [14] was 93.9% and the viability, T/C [15] was 104%. It also gave a viability, T/C [16] of 96.3%, a viability, T/C [17] of 90.5% and a viability, T/C [18] of 35.8%. The viability, T/C [19] was 106%, the viability, T/C [20] was 97.1% and the viability, T/C [21] was 82.5%. For the same compound, the viability, T/C [22] was 88.7%, the viability, T/C [23] was 88.8% and the viability, T/C [24] was 34.4%. The viability, T/C (second compound 3.16 µM, first compound 0.0316 µM) was 80.4%, the viability, T/C (second compound 3.16 µM, first compound 0.1 µM) was 79.4% and the viability, T/C (second compound 3.16 µM, first compound 0.316 µM) was 80.6%. The viability, T/C (second compound 3.16 µM, first compound 1 µM) was 80.5%, the viability, T/C (second compound 3.16 µM, first compound 3.16 µM) was 67.7% and the viability, T/C (second compound 3.16 µM, first compound 10 µM) was 39.2%. For the same compound, the viability, T/C (second compound 10 µM, first compound 0.0316 µM) was 57.5%, the viability, T/C (second compound 10 µM, first compound 0.1 µM) was 70.3% and the viability, T/C (second compound 10 µM, first compound 0.316 µM) was 59.6%. For the same compound, the viability, T/C (second compound 10 µM, first compound 1 µM) was 60.8%, the viability, T/C (second compound 10 µM, first compound 3.16 µM) was 62% and the viability, T/C (second compound 10 µM, first compound 10 µM) was 31.1%.
CC(Cn1ccc(-c2ccc(C#N)c(Cl)c2)n1)NC(=O)c1cc(C(C)O)[nH]n1 (stereo unspecified) + CC(Nc1ccc2c(c1)OCCn1cc(N3C(=O)OCC3C(F)F)nc1-2)C(N)=O gave an IC50 (second compound 0.00316 µM) greater than 10 µM, an IC50 (second compound 0.01 µM) greater than 10 µM and an IC50 (second compound 0.0316 µM) greater than 10 µM. For the same compound, the IC50 (second compound 0.1 µM) was greater than 10 µM, the IC50 (second compound 0.316 µM) was less than 0.0316 µM and the IC50 (second compound 1 µM) was less than 0.0316 µM. For the same compound, the viability, T/C [25] was 86.4%, the viability, T/C [26] was 92.7% and the viability, T/C [27] was 94%. It also gave a viability, T/C [28] of 97.8%, a viability, T/C [29] of 105% and a viability, T/C [30] of 107%. For the same compound, the viability, T/C [31] was 87.7%, the viability, T/C [32] was 90.9% and the viability, T/C [33] was 92.1%. The viability, T/C [34] was 91.5%, the viability, T/C [35] was 86.6% and the viability, T/C [36] was 95.1%. For the same compound, the viability, T/C [1] was 84.3%, the viability, T/C [2] was 76.1% and the viability, T/C [3] was 74.7%. The viability, T/C [4] was 84.5%, the viability, T/C [5] was 81.7% and the viability, T/C [6] was 82.6%. It also gave a viability, T/C [7] of 58.1%, a viability, T/C [8] of 56.3% and a viability, T/C [9] of 54.6%. It also gave a viability, T/C [10] of 54.4%, a viability, T/C [11] of 61.3% and a viability, T/C [12] of 56.5%. For the same compound, the viability, T/C [13] was 34.3%, the viability, T/C [14] was 32.5% and the viability, T/C [15] was 32.6%. For the same compound, the viability, T/C [16] was 36.2%, the viability, T/C [17] was 38.4% and the viability, T/C [18] was 34.6%. It also gave a viability, T/C [19] of 21.8%, a viability, T/C [20] of 21.7% and a viability, T/C [21] of 20.9%. For the same compound, the viability, T/C [22] was 26.6%, the viability, T/C [23] was 22.6% and the viability, T/C [24] was 24.1%.
In the case of CC(C)NCC(C(=O)N1CCN(c2ncnc3c2C(C)CC3O)CC1)c1ccc(Cl)cc1 (stereo unspecified) + COc1c(OCCCN2CCOCC2)ccc2c3n(c(=NC(=O)c4cnc(N)nc4)nc12)CCN3, the IC50 (second compound 0.00316 µM) is reported as 0.793 µM, the IC50 (second compound 0.01 µM) is reported as 0.537 µM and the IC50 (second compound 0.0316 µM) is reported as less than 0.0316 µM. The IC50 (second compound 0.1 µM) was less than 0.0316 µM, the IC50 (second compound 0.316 µM) was less than 0.0316 µM and the IC50 (second compound 1 µM) was less than 0.0316 µM. For the same compound, the viability, T/C [25] was 80.9%, the viability, T/C [26] was 85.2% and the viability, T/C [27] was 66.5%. It also gave a viability, T/C [28] of 46.5%, a viability, T/C [29] of 21% and a viability, T/C [30] of 11.6%. The viability, T/C [31] was 68.9%, the viability, T/C [32] was 69.2% and the viability, T/C [33] was 62.2%. For the same compound, the viability, T/C [34] was 35.6%, the viability, T/C [35] was 16.6% and the viability, T/C [36] was 9.89%. For the same compound, the viability, T/C [1] was 44.4%, the viability, T/C [2] was 38.5% and the viability, T/C [3] was 35.7%. For the same compound, the viability, T/C [4] was 24%, the viability, T/C [5] was 12.2% and the viability, T/C [6] was 6.65%. It also gave a viability, T/C [7] of 18.9%, a viability, T/C [8] of 16.4% and a viability, T/C [9] of 16.3%. The viability, T/C [10] was 12.4%, the viability, T/C [11] was 6.76% and the viability, T/C [12] was 3.98%. For the same compound, the viability, T/C [13] was 6.59%, the viability, T/C [14] was 6.54% and the viability, T/C [15] was 5.22%. For the same compound, the viability, T/C [16] was 4.04%, the viability, T/C [17] was 2.93% and the viability, T/C [18] was 1.71%. For the same compound, the viability, T/C [19] was 1.44%, the viability, T/C [20] was 2.11% and the viability, T/C [21] was 1.2%. For the same compound, the viability, T/C [22] was 1.24%, the viability, T/C [23] was 0.83% and the viability, T/C [24] was 0.81%.
